Measurements from patent US20220409510A1, “Polypeptides And Methods For Improving Skin Conditions” (Interk Peptide Therapeutics Limited, priority 2018, published 2022).

What was measured:
[1] = tested on: Cyclobutane pyrimidine dimers (CPDs) in primary keratinocytes; experiment: CPD detection by IHC in keratinocytes after UV-irradiation in vitro; type: cell-based
Experimental: An in vitro assay was conducted allowing for densitometry analysis of CPD detection by IHC in keratinocytes 3 h following UV-irradiation in accordance with the following protocol.
Keratinocytes were harvested and cultured as described above at Example 2. Samples were split into two groups, being UV irradiated (UVR) and non-UV irradiated (SHAM). UV-irradiation was performed by solar simulated UV-irradiation for cells, also as described above at Example 2. Irradiation solution was PBS containing 5 mM D-glucose. […]
Harvested keratinocytes were plated on poly-D-lysine coated coverslips in 96 well plates and irradiated (or sham treated) as described above in at Example 2 in PBS containing 5 mM D-glucose. Keratinocytes were fixed 3 h after UV-irradiation. Immunohistochemistry and image analysis were performed as described previously (Gordon-Thomson et al., Photochem Photobiol Sci, 2012, 11(12):1837-47; Gupta et al., vide supra, Rybchyn MS et al., J Invest Dermatol, 2018;138(5):1146-1156). Thymine dimers were detected using the anti-thymine dimer antibody (Sigma-Aldrich, Mo., USA) at 10 μg/mL, and quantified as an index of CPD, as previously described (Douki T and Cadet J, Biochemistry,2001, 40(8):2495-501).

apoptotic keratinocytes = experiment: Sunburn (apoptotic) cells in mouse skin after UV-irradiation; type: in vivo, Skh:hr1 hairless mice; details: topical 20, 100 or 200 ug in 100 uL immediately after UVR; FIG. 11
Experimental: UV-induced DNA damage in the form of elevated CPDs can induce mutations in epidermal cells leading to the development of cancer cells. Reduction of CPDs through application of DNA repair enzymes prevents the risk of UV-induced skin cancer and reduce the level of apoptotic cells following UV-induced damage. The number of apoptotic skin cells following UV-irradiation was assessed in accordance with the following protocol.
Female Skh:hr1 hairless mice were prepared, irradiated and biopsied according to the methods of Example 4. Prior to biopsy, and immediately after irradiation, mice were treated with either a base lotion vehicle (negative control), 11.4 pmol/cm2 of Calcitriol in vehicle (positive control) the polypeptide IK34720 (SEQ ID NO: 3) in water, at 20 ug, 100 ug or 200 ug in a total volume of 100 uL.
Biopsies were taken from UV-irradiated dorsal skin 3 hrs post-UVR and fixed in Histochoice fixative (Amresco, Solon OH) for 6 h. Skin samples were paraffin-embedded and 5 micrometre sections were cut for all analyses. Sections (24 h after UV) were subjected to routine hematoxylin and eosin staining for visualization of sunburn cells. The stained sections were examined under a Zeiss-Axioplan light microscope at 40× magnification, and the number of sunburn cells per linear millimetre of skin section recorded.

[2] = tested on: wound (skin punch, ID 12 mm); experiment: Murine wound model, percentage closure of the wound; type: in vivo, ICR mice; details: topical 10 ug per mouse daily for 10 consecutive days; Day 5 to Day 11; vs negative control (PBS)
Text: FIGS. 1 and 2 illustrate the effect of polypeptides IK34720 (SEQ ID NO: 3—RSKAKNPLYRRRRRRRRR) (FIG. 1) and the dextro-reverso sequence IK236770 (SEQ ID NO: 4—rrrrrrrrrylpnkaksr) (FIG. 2), on wound healing over 10 days in a murine wound model in accordance with the following protocol.
Three groups of 8 male ICR mice with a mean weight of 22 g (±2 g) were used in the present study. The animals were housed in individual cages during the study. Under isoflurane gas anaesthesia, the shoulder and back region of each animal was shaved and a sharp punch (ID 12 mm) was used to induce a wound by removing the skin, including panniculus carnosus and adherent tissues on Day 1.
Following induction of the wound the polypeptides IK34720 and IK236770 were topically administered to the site of the wound at a dosage of 10 μg per animal. […] An additional group which comprised the administration of Phosphate buffered Saline (PBS) at pH 7.4 was used as a negative control.
The wound healing was analysed on Days 5, 7, 9 and 11 by tracing the periphery of the wound onto clear plastic sheets with the wound area calculated by an Image analyzer ProPlus (Media Cybernetics, Version 4.5.0.29. The percentage closure of the wound (%) was calculated. Percentage closure of the wound was determined on 5, 7, 9 and 11. ANOVA and Dunnett's test were applied to test significant significance between the treated groups (peptide and positive control groups) and the negative control group at each time point of measurement. Differences were considered statistically significant at P<0.05, and are indicated by *.

MMP1 = MMP1 expression in human skin explants after UV-irradiation (immunohistochemistry); type: cell-based
Experimental: The effect of the polypeptide IK34720 (SEQ ID NO: 3) on MMP-1 activity in human skin was evaluated using the following protocol.
FIGS. 17 and 18 illustrate the effect of the polypeptide IK34720 (SEQ ID NO: 3) on MMP1 expression, in accordance with the following protocol.
Human skin (2× human explant tissues) removed at elective surgery was cleaned, dissected and cut into pieces of approx. 5mm×5mm. Each piece was placed in a well of a 96 well plate, with individual plates prepared to assess the effects 3 hrs post treatment. Skin was subjected to UV-radiation from solar-simulated UV source for 1.5 h (UVR), or non-irradiation (SHAM), and treated immediately after with a vehicle control, Calcitriol (1 nM) or the polypeptide IK34720 (SEQ ID NO: 3) at concentrations of 50 μM, 250 μM or 500 uM. In FIG. 17, IK50, IK250 and IK500 as μM concentrations refers to 15 μg, 75 μg and 150 μg of IK34720 per 120 μL culture medium/explant, respectively.
Samples harvested at 3 hrs were fixed, sectioned, immunohistochemically stained for MMP1 and quantified for MMP1 expression, by expressing epidermal area stained for MMP1 as a function of total epidermal area examined.

[3] = tested on: CPD formation in the skin; experiment: CPD formation in the skin of mice after acute UV-irradiation; type: in vivo, Skh:hr1 hairless mice; details: topical immediately after UVR, doses as Example 4; 3 hours post-UVR; vs vehicle
Experimental: Female Skh:hr1 hairless mice were exposed to solar simulated UV-irradiation as described above at Example 4. Immediately after irradiation mice were treated topically on the dorsal surface also as described in Example 4. Subsequently, skin was fixed at 3 hours post-UVR, and subjected to immuno-histochemical staining using the antibody directed against thymine dimers (CPD) described above at 10 μg/ml. […] In FIG. 9, dark staining in nuclei indicates the presence of thymine dimers (CPD), and the % area stained is presented. Immunohistology was quantified as per Example 4.

RSKAKNPLYRRRRRRRRR [IK34720, 18-residue polypeptide: … with a C-terminal polyarginine region of 8 arginines]
CPD levels vs keratinocytes treated with Calcitriol ([1]; 5 μM, 3 h after UV): comparable reduction in CPD levels
CPD levels vs vehicle-treated UV-irradiated keratinocytes ([1]; 5 μM, 3 h after UV): statistically significant (*p<0.05) reduction in CPD levels
CPD formation (average intensity of CPD staining) vs positive control ([1]; 10 uM, FIG. 8B): more effective at inhibiting CPD formation than the positive control 1,25 D
CPD levels ([1]; 0.5, 1, 2.5 or 5 μM after ssUV, keratinocytes fixed 3 h after UV, FIGS. 7 and 8): decreases CPD levels in primary keratinocytes exposed to solar simulated UV-irradiation in a dose dependent manner
number of apoptotic keratinocytes (sunburn cells) (apoptotic keratinocytes): reduced the number of apoptotic keratinocytes
wound closure percentage [2]: statistically significant increase (P<0.05) in wound closure percentage
percentage of MMP1 positive cells (MMP1; 500 μM, 3 hrs, FIG. 18): statistically significantly reduced
cells staining for MMP-1 (MMP1; 3 hrs post irradiation/treatment, Calcitriol 1 nM, IK34720 50, 250 or 500 uM, FIG. 17): fewer stained cells
CPD formation in the skin (CPD nuclei) [3]: inhibits CPD formation
